Test results from ChEMBL document CHEMBL1125227, “Potential antitumor agents. 62. Structure-activity relationships for tricyclic compounds related to the colon tumor active drug 9-oxo-9H-xanthene-4-acetic acid” (J Med Chem, 1991).

Assays:
Format in all cases: functional, organism-based
Conditions in all cases: Mus musculus
MC-38 [1] = assay: In Vivo antitumor effect on subcutaneously implanted C38 colon tumor in mice and examined by histopathology and compared with control.( - = <50% hemorrhagic response) at optimal dose of 330 (mg/kg)
MC-38 [2] = assay: In Vivo antitumor effect on subcutaneously implanted C38 colon tumor in mice and examined by histopathology and compared with control.( - = <50% hemorrhagic response) at optimal dose of 750 (mg/kg)
MC-38 [3] = assay: In Vivo antitumor effect on subcutaneously implanted C38 colon tumor in mice and examined by histopathology and compared with control.( - = <50% hemorrhagic response) at optimal dose of 500 (mg/kg)
MC-38 [4] = assay: In Vivo antitumor effect on subcutaneously implanted C38 colon tumor in mice and examined by histopathology and compared with control.( + = 50-90% hemorrhagic necrosis response) at optimal dose of 750 (mg/kg)
MC-38 [5] = assay: In Vivo antitumor effect on subcutaneously implanted C38 colon tumor in mice and examined by histopathology and compared with control.( ++ = >90% hemorrhagic necrosis response) at optimal dose of 220 (mg/kg)
MC-38 [6] = assay: In Vivo antitumor effect on subcutaneously implanted C38 colon tumor in mice and examined by histopathology and compared with control.( + = 50-90% hemorrhagic necrosis response) at optimal dose of 500 (mg/kg)
MC-38 [7] = assay: In Vivo antitumor effect on subcutaneously implanted C38 colon tumor in mice and examined by histopathology and compared with control.(+ = 50-90% hemorrhagic necrosis response) at optimal dose of 750 (mg/kg)

`O=C(O)Cc1cccc2c1Oc1ccccc1S2` was tested, and the Activity (MC-38 [1]) was <50% hemorrhagic response at optimal dose of 330 mg/kg.

`O=C(O)Cc1cccc2c1Oc1ccccc1S2(=O)=O` was tested, and the Activity (MC-38 [2]) was <50% hemorrhagic response at optimal dose of 750 mg/kg.

`O=C(O)Cc1cccc2c1Oc1ccccc1C2` was tested, and the Activity (MC-38 [3]) was <50% hemorrhagic response at optimal dose of 500 mg/kg.

`O=C(O)Cc1cccc2c(=O)c3ccccc3sc12` was tested, and the Activity (MC-38 [1]) was <50% hemorrhagic response at optimal dose of 330 mg/kg.

For `O=C(O)Cc1cccc2c1Oc1ccccc1[S+]2[O-]` (stereo unspecified), the Activity (MC-38 [2]) was <50% hemorrhagic response at optimal dose of 750 mg/kg.

`O=C(O)Cc1cccc2nc3ccccc3nc12` was tested, and the Activity (MC-38 [2]) was <50% hemorrhagic response at optimal dose of 750 mg/kg.

`O=C(O)Cc1cccc2oc3ccccc3c12` was tested, and the Activity (MC-38 [2]) was <50% hemorrhagic response at optimal dose of 750 mg/kg.

In the case of `O=C(O)Cc1cccc2cc3ccccc3cc12`, the Activity (MC-38 [4]) is reported as 50-90% hemorrhagic necrosis response at optimal dose of 750 mg/kg.

For `O=C(O)Cc1cccc2c(=O)c3ccccc3oc12`, the Activity (MC-38 [5]) was >90% hemorrhagic necrosis response at optimal dose of 220 mg/kg.

For `O=C(O)Cc1cccc2c1Oc1ccccc1C(=O)C2`, the Activity (MC-38 [4]) was 50-90% hemorrhagic necrosis response at optimal dose of 750 mg/kg.

In the case of `O=C(O)Cc1cccc2c1oc1ccccc12`, the Activity (MC-38 [6]) is reported as 50-90% hemorrhagic necrosis response at optimal dose of 500 mg/kg.

With `O=C(O)Cc1cccc2c1C(=O)c1ccccc1C2=O` the Activity (MC-38 [7]) was 50-90% hemorrhagic necrosis response at optimal dose of 750 mg/kg.

With `O=C(O)Cc1cccc2c1Oc1ccccc1CC2=O` the Activity (MC-38 [2]) was <50% hemorrhagic response at optimal dose of 750 mg/kg.

With `O=C(O)Cc1cccc2c(=O)c3ccccc3[s+]([O-])c12` (stereo unspecified) the Activity (MC-38 [2]) was <50% hemorrhagic response at optimal dose of 750 mg/kg.

In the case of `O=C(O)Cc1cccc2c1Oc1ccccc1O2`, the Activity (MC-38 [2]) is reported as <50% hemorrhagic response at optimal dose of 750 mg/kg.

In the case of `O=C(O)Cc1cccc2c1S(=O)(=O)c1ccccc1C2=O`, the Activity (MC-38 [2]) is reported as <50% hemorrhagic response at optimal dose of 750 mg/kg.
